# Reference: patent US9700546B2, “Trivalent chromium compounds, compositions and methods of use” (INTERHEALTH NUTRACEUTICALS, INC., priority 2006, dated 2017)
# Entries after “also recorded” stand apart in the source; their conditions may differ.
# How the values were obtained:
# [1] = test system: Obese Zucker rats; test: In vivo assessment in obese Zucker rats: vascular inflammation markers (MCP-1, CRP, RBP-4, leptin, ICAM, adiponectin); conditions: for Leptin / RBP-4 / Adiponectin / CRP / ICAM / MCP-1 / C-reactive protein, effect in words / adiponectin levels, effect in words / intracellular adhesion molecule, effect in words / monocyte chemotactic protein-1, effect in words: obese Zucker rats, 8 weeks; for Leptin / RBP-4 / Adiponectin / CRP / ICAM / MCP-1: daily 400 μg Cr(III)/kg, mean; for Adiponectin / CRP / ICAM / MCP-1: plasma, ELISA; for C-reactive protein, effect in words / adiponectin levels, effect in words / intracellular adhesion molecule, effect in words / monocyte chemotactic protein-1, effect in words: effect of administration
# [2] = test system: Obese Zucker rats; test: In vivo assessment in obese Zucker rats: key biological parameters (fasting glucose, HbA1c, vitamin C, GSH, RBC lipid peroxidation); conditions: for RBC Lipid Peroxidase: malondialdehyde by thiobarbituric acid; for RBC Lipid Peroxidase / Fasting Glucose / GSH / HbA1c / Vitamin C / blood vitamin C levels, effect in words / fasting glucose, effect in words / glycosylated hemoglobin, effect in words / red blood cell lipid peroxidation, effect in words: obese Zucker rats, 8 weeks; for RBC Lipid Peroxidase / Fasting Glucose / GSH / HbA1c / Vitamin C: daily 400 μg Cr(III)/kg, mean; for Fasting Glucose: fasted overnight; for Vitamin C: plasma; for blood vitamin C levels, effect in words / fasting glucose, effect in words / glycosylated hemoglobin, effect in words / red blood cell lipid peroxidation, effect in words: effect of administration
# [3] = test system: Obese Zucker rats; test: In vivo assessment in obese Zucker rats: body weight and food intake; conditions: for Food Intake 5 wks / Food Intake 7 wks: obese Zucker rats, daily 400 μg Cr(III)/kg, mean; for Food Intake 5 wks: at 5 weeks; for Food Intake 7 wks: at 7 weeks
# [4] = test system: Obese Zucker rats; test: In vivo assessment in obese Zucker rats: blood lipid profile (total cholesterol, triglycerides, HDL); conditions: daily 400 μg Cr(III)/kg, 8 weeks, mean
# [5] = test system: Obese Zucker rats; test: In vivo assessment in obese Zucker rats: other vascular inflammation markers (cAMP, TNFα, IL-6, OxyDNA); conditions: for OxyDNA: oxidative DNA damage
# [6] = test system: Obese Zucker rats; test: In vivo assessment in obese Zucker rats: clinical chemistry (AP, BUN, CRT, AST, ALT)
# [7] = obese Zucker rats, daily 400 μg Cr(III)/kg, 8 weeks, mean ± SE
# [8] = compared to chromium nicotinate-glycine-cysteine-glutamic acid GTF complex of Toepfer et al.
# [9] = listed as Chromium dinicocysteinate
# [10] = listed as chromium dinicocysteinate
# [11] = over chromium nicotinate, chromium picolinate and chromium histidinate
substance,measurement,setting,value
Chromium Dinicotinate Aspartate [Cr(nic)2Asp],Leptin,[1],406.15 pg/mL
same,RBP-4,[1],57870.00 ng/mL
same,Adiponectin,[1],12078.33 ng/mL
same,CRP,[1],602.51 ng/mL
same,ICAM,[1],17985.91 pg/mL
same,MCP-1,[1],1431.68 pg/mL
same,RBC Lipid Peroxidase,[2],2.02 nmol/mL
same,Fasting Glucose,[2],496.33 mg/dL
same,GSH,[2],5.15 µmol/g
same,HbA1c,[2],15.62%
same,Vitamin C,[2],0.12 mg %
same,Food Intake 5 wks,[3],38.90 g/day
same,Food Intake 7 wks,[3],40.00 g/day
same,HDL,[4],70.17 mg/dL
same,Total Chol/HDL,[4],2.88 ratio
same,Total Cholesterol,[4],202.17 mg/dL
same,Triglyceride,[4],699.67 mg/dL
same,IL-6,[5]; [7],88.91 ± 2.25 pg/mL
same,cAMP,[5]; [7],27.95 ± 1.22 pmol/mL
same,OxyDNA,[5]; [7],41.92 ± 1.46 ng/mL
Chromium Dinicotinate Phenylalanine [Cr(nic)2Phe],Leptin,[1],351.16 pg/mL
same,RBP-4,[1],53891.43 ng/mL
same,Adiponectin,[1],12712.86 ng/mL
same,CRP,[1],633.55 ng/mL
same,ICAM,[1],17480.50 pg/mL
same,MCP-1,[1],1755.25 pg/mL
same,RBC Lipid Peroxidase,[2],1.97 nmol/mL
same,Fasting Glucose,[2],510.43 mg/dL
same,GSH,[2],5.05 µmol/g
same,HbA1c,[2],15.95%
same,Vitamin C,[2],0.15 mg %
same,Food Intake 5 wks,[3],38.16 g/day
same,Food Intake 7 wks,[3],39.22 g/day
same,HDL,[4],70.43 mg/dL
same,Total Chol/HDL,[4],2.87 ratio
same,Total Cholesterol,[4],201.71 mg/dL
same,Triglyceride,[4],583.00 mg/dL
same,IL-6,[5]; [7],84.82 ± 1.60 pg/mL
same,cAMP,[5]; [7],31.60 ± 1.22 pmol/mL
same,OxyDNA,[5]; [7],40.63 ± 3.74 ng/mL
Chromium Dinicocysteinate [Cr(nic)2Cys],"alkaline phosphatase activities, effect in words","[6]; Zucker diabetic fatty rats, supplemented group",reduces
same,"ALT vs GTF complex, in words",[6]; [8],decreased levels
same,"AST vs GTF complex, in words",[6]; [8],decreased levels
same,"blood creatinine, effect in words",[6]; effect of administration,reducing
same,ALT (Alanine Aminotransferease),"[6]; obese Zucker rats, mean ± SE",99.00 u/L
same,AP (Alkaline phosphatase),"[6]; obese Zucker rats, mean ± SE",35.15 u/L
same,Anion Gap,"[6]; obese Zucker rats, mean ± SE",29.62
same,BUN (Blood Urea Nitrogen),"[6]; obese Zucker rats, mean ± SE",18.23 mg/dL
same,CRT (Creatinine),"[6]; obese Zucker rats, mean ± SE",0.41 mg/dL
same,Total Bilirubin,"[6]; obese Zucker rats, mean ± SE",0.05 mg/dL
same,"adiponectin vs GTF complex, in words",[1]; [8],increased levels
same,"C-reactive protein, effect in words",[1]; [9],reductions
same,"adiponectin levels, effect in words",[1]; [9],elevation
same,"intracellular adhesion molecule, effect in words",[1]; [9],reductions
same,"monocyte chemotactic protein-1, effect in words",[1]; [9],reductions
same,"C-reactive protein, effect in words",[1]; [10],reducing; also recorded: reductions
same,"adiponectin levels, effect in words",[1]; [10],increases
same,"intracellular adhesion molecule, effect in words",[1]; [10],reducing
same,"monocyte chemotactic protein-1, effect in words",[1]; [10],reducing; also recorded: reductions
same,Leptin,[1],407.32 pg/mL
same,RBP-4,[1],49670.13 ng/mL
same,"C-reactive protein vs comparators, in words",[1]; [11],decreased levels
same,"ICAM vs comparators, in words",[1]; [11],decreased levels
same,"adiponectin vs comparators, in words",[1]; [11],increased levels
same,"MCP-1 vs comparator, in words",[1]; over chromium picolinate,lower levels
same,Adiponectin,[1],12732.11 ng/mL
same,CRP,[1],569.96 ng/mL
same,ICAM,[1],17057.51 pg/mL
same,MCP-1,[1],2829.17 pg/mL
same,"fasting glucose vs GTF complex, in words",[2]; [8],decreased levels
same,"glycosylated hemoglobin vs GTF complex, in words",[2]; [8],decreased levels
same,"red blood cell lipid peroxidation vs GTF complex, in words",[2]; [8],decreased levels
same,"vitamin C vs GTF complex, in words",[2]; [8],increased levels
same,RBC Lipid Peroxidase,[2],1.81 nmol/mL
same,"blood vitamin C levels, effect in words",[2]; [9],elevation
same,"fasting glucose, effect in words",[2]; [9],reductions
same,"glycosylated hemoglobin, effect in words",[2]; [9],reductions
same,"red blood cell lipid peroxidation, effect in words",[2]; [9],reductions
same,"blood vitamin C levels, effect in words",[2]; [10],increased
same,"fasting glucose, effect in words",[2]; [10],reducing
same,"glycosylated hemoglobin, effect in words",[2]; [10],reducing
same,"red blood cell lipid peroxidation, effect in words",[2]; [10],reducing; also recorded: reduced
same,Fasting Glucose,[2],446.24 mg/dL
same,GSH,[2],4.74 µmol/g
same,HbA1c,[2],14.76%
same,"fasting glucose vs comparators, in words",[2]; [11],decreased levels
same,"glycosylated hemoglobin vs comparators, in words",[2]; [11],decreased levels
same,"vitamin C vs comparators, in words",[2]; [11],increased levels
same,"red blood cell lipid peroxidase vs comparator, in words",[2]; over chromium picolinate,lower levels
same,Vitamin C,[2],0.18 mg %
same,"food intake vs GTF complex, in words",[3]; [8],reduced
same,"food intake, effect in words",[3]; effect of administration,reduction
same,Food Intake 5 wks,[3],34.43 g/day
same,Food Intake 7 wks,[3],38.62 g/day
same,HDL,[4],66.46 mg/dL
same,Total Cholesterol,[4],188.46 mg/dL
same,Triglyceride,[4],550.89 mg/dL
same,"OxyDNA vs GTF complex, in words",[5]; [8],decreased levels
same,"TNFα vs GTF complex, in words",[5]; [8],decreased levels
same,IL-6,[5]; [7],95.02 ± 1.99 pg/mL
same,TNFα,[5]; [7],17.72 ± 3.35 pg/mL
same,cAMP,[5]; [7],33.26 ± 2.61 pmol/mL
same,"TNFα vs comparators, in words",[5]; over chromium picolinate and chromium histidinate,lowered levels
same,OxyDNA,[5]; [7],46.92 ± 2.24 ng/mL
